# According to patent publication US10941157B2, “Pesticidal compositions and uses thereof” (Gilead Apollo, LLC, priority 2015, dated 2021):
# Like-named read-outs stand apart in the source and are kept apart here.
# Legend:
# Type in all cases: cell-based
# [1] = test system: Collectotrichum graminicola (Cg); assay: In vitro pathogen growth inhibition assay, Cg; details: 48 h
# Experimental: (§1) A growth inhibition assay was conducted to determine the ability of compounds to control the growth of fungal pathogens, such as Botrtyis cinerea (Bc), Collectotrichum graminicola (Cg), Diplodia maydis (Dm), Fusarium moniliforme (Fm), Fusarium virguliforme (Fv), Phytophthora capsici (Pc), Rhizoctonia solani (Rs), and Septoria tritici (St). The compounds listed in Table 1 were each dissolved in DMSO at 2.5 mg/ml to produce compound stock solutions (“stocks”). […] Negative controls on each plate included 2% DMSO, water, and a blank (media+2% DMSO). Fungal spores were isolated from previously sub-cultured plates of Botrtyis cinerea (Bc), Collectotrichum graminicola (Cg), Diplodia maydis (Dm), Fusarium moniliforme (Fm), Fusarium virguliforme (Fv), Phytophthora capsici (Pc), and Septoria tritici (St). The isolated spores were diluted to individual concentrations with a 17% V8 liquid media. For Rhizoctonia solani (Rs), 1.5 mm mycelial plugs were used in place of spores and ¼ Potato Dextrose Broth (PDB) was used for dilution. The spore concentrations and plug sizes were based on growth curves generated at 48 hours for each pathogen. In a second 96-well plate, the spores or mycelial plugs, media, diluted compound solutions, and controls were combined. Once the compound was added, a true final concentration of compound in each well was measured by an OD600 reading, which adjusted for any compound precipitation that might have occurred in the well. Plate readings were repeated at both 24 and 48 hours. The blank negative control was used as a background subtraction. Additional visual ratings were performed at both 24 and 48 hours for checking on precipitation and confirming efficacy. […] Both tables list the concentration of each compound that was sufficient to ≥90% inhibition of growth for each of the fungal pathogens listed above. In addition, some of compounds were tested in a yeast growth inhibition assay for Saccharomyces cerevisiae (Sc). Table 2 lists the concentration of the tested compound that was sufficient to ≥75% inhibition of Saccharomyces cerevisiae (Sc).
# Diplodia maydis (Dm) = assay: In vitro pathogen growth inhibition assay, Dm; details: Stenocarpella maydis, 48 h
# Experimental: as §1
# Botrtyis cinerea (Bc) = assay: In vitro pathogen growth inhibition assay, Bc; details: 48 h
# Experimental: as §1
# Rhizoctonia solani (Rs) = assay: In vitro pathogen growth inhibition assay, Rs (mycelial plugs); details: Rhizoctonia solani, 48 h
# Experimental: as §1
# [2] = test system: Fusarium virguliforme (Fv); assay: In vitro pathogen growth inhibition assay, Fv
# Experimental: as §1
# [3] = test system: Phytophthora capsici (Pc); assay: In vitro pathogen growth inhibition assay, Pc; details: 48 h
# Experimental: as §1
# Septoria tritici (St) = assay: In vitro pathogen growth inhibition assay, St; details: Zymoseptoria tritici, 48 h
# Experimental: as §1
# [4] = test system: Fusarium moniliforme (Fm); assay: In vitro pathogen growth inhibition assay, Fm; details: Fusarium verticillioides
# Experimental: as §1
# [5] = ≥90% inhibition, 48 hours vs 2% DMSO control, read-out: Compound Concentration (ppm) sufficient for ≥90% inhibition of growth, Cg
# [6] = ≥90% inhibition, 48 hours vs 2% DMSO control, read-out: Compound Concentration (ppm) sufficient for ≥90% inhibition of growth, Dm
# [7] = ≥90% inhibition, 48 hours vs 2% DMSO control, read-out: Compound Concentration (ppm) sufficient for ≥90% inhibition of growth, Bc
# [8] = ≥90% inhibition, mycelial plugs, 48 hours vs 2% DMSO control, read-out: Compound Concentration (ppm) sufficient for ≥90% inhibition of growth, Rs
# [9] = ≥90% inhibition, 48 hours vs 2% DMSO control, read-out: Compound Concentration (ppm) sufficient for ≥90% inhibition of growth, Fv
# [10] = ≥90% inhibition, 48 hours vs 2% DMSO control, read-out: Compound Concentration (ppm) sufficient for ≥90% inhibition of growth, Pc
# [11] = ≥90% inhibition, 48 hours vs 2% DMSO control, read-out: Compound Concentration (ppm) sufficient for ≥90% inhibition of growth, St
# [12] = ≥90% inhibition, 48 hours vs 2% DMSO control, read-out: Compound Concentration (ppm) sufficient for ≥90% inhibition of growth, Fm
# [13] = ≥90% growth inhibition, 48 hours, vs 2% DMSO control, read-out: Compound Concentration (ppm) sufficient for ≥90% inhibition of Cg
# [14] = ≥90% growth inhibition, 48 hours, vs 2% DMSO control, read-out: Compound Concentration (ppm) sufficient for ≥90% inhibition of Dm
# [15] = ≥90% growth inhibition, 48 hours, vs 2% DMSO control, read-out: Compound Concentration (ppm) sufficient for ≥90% inhibition of Bc
# [16] = ≥90% growth inhibition, mycelial plugs, 48 hours, vs 2% DMSO control, read-out: Compound Concentration (ppm) sufficient for ≥90% inhibition of Rs
# [17] = ≥90% growth inhibition, 48 hours, vs 2% DMSO control, read-out: Compound Concentration (ppm) sufficient for ≥90% inhibition of Fv
# [18] = ≥90% growth inhibition, 48 hours, vs 2% DMSO control, read-out: Compound Concentration (ppm) sufficient for ≥90% inhibition of Pc
# [19] = ≥90% growth inhibition, 48 hours, vs 2% DMSO control, read-out: Compound Concentration (ppm) sufficient for ≥90% inhibition of St
# [20] = ≥90% growth inhibition, 48 hours, vs 2% DMSO control, read-out: Compound Concentration (ppm) sufficient for ≥90% inhibition of Fm
# [21] = concentration sufficient to ≥90% inhibition of growth, 48 hours vs 2% DMSO control, read-out: Compound Concentration (ppm) for ≥90% inhibition, Cg
# [22] = concentration sufficient to ≥90% inhibition of growth, 48 hours vs 2% DMSO control, read-out: Compound Concentration (ppm) for ≥90% inhibition, Dm
# [23] = concentration sufficient to ≥90% inhibition of growth, 48 hours vs 2% DMSO control, read-out: Compound Concentration (ppm) for ≥90% inhibition, Bc
# [24] = concentration sufficient to ≥90% inhibition of growth, 48 hours vs 2% DMSO control, read-out: Compound Concentration (ppm) for ≥90% inhibition, Rs
# [25] = concentration sufficient to ≥90% inhibition of growth, 48 hours vs 2% DMSO control, read-out: Compound Concentration (ppm) for ≥90% inhibition, Fv
# [26] = concentration sufficient to ≥90% inhibition of growth, 48 hours vs 2% DMSO control, read-out: Compound Concentration (ppm) for ≥90% inhibition, Pc
# [27] = concentration sufficient to ≥90% inhibition of growth, 48 hours vs 2% DMSO control, read-out: Compound Concentration (ppm) for ≥90% inhibition, St
# [28] = concentration sufficient to ≥90% inhibition of growth, 48 hours vs 2% DMSO control, read-out: Compound Concentration (ppm) for ≥90% inhibition, Fm
"IC90 [1, 13] [µg/mL]",IC90 (Diplodia maydis (Dm); [14]) [µg/mL],IC90 (Botrtyis cinerea (Bc); [15]) [µg/mL],IC90 (Rhizoctonia solani (Rs); [16]) [µg/mL],"IC90 [2, 17] [µg/mL]","IC90 [3, 18] [µg/mL]",IC90 (Septoria tritici (St); [19]) [µg/mL],"IC90 [4, 20] [µg/mL]",SMILES,further results
,,,,,,,,COc1ccc(F)cc1[C@H](Cn1c(=O)n(CC(=O)NC(C)C)c(=O)c2c(C)c(-n3nccn3)sc21)OCCO [Compound I-087],"IC90 [1, 5]: 2 µg/mL; IC90 (Diplodia maydis (Dm); [6]): > 50 µg/mL; IC90 (Botrtyis cinerea (Bc); [7]): 2 µg/mL; IC90 (Rhizoctonia solani (Rs); [8]): 2 µg/mL; IC90 [2, 9]: 2 µg/mL; IC90 [3, 10]: > 50 µg/mL; IC90 (Septoria tritici (St); [11]): > 50 µg/mL; IC90 [4, 12]: 0.08 µg/mL"
10,10,0.4,2,0.08,> 50,> 50,0.4,COc1ccccc1CCn1c(=O)n(C(C)(C)C(=O)NC(C)C)c(=O)c2c(C)c(-n3nccn3)sc21 [Compound I-294],
,,,,,,,,COc1ccc(F)cc1[C@@H](O)Cn1c(=O)n(C(C)(C)C(N)=O)c(=O)c2c(C)c(-n3nccn3)sc21 [Compound I-221],"IC90 [1, 21]: 50 µg/mL; IC90 (Diplodia maydis (Dm); [22]): > 50 µg/mL; IC90 (Botrtyis cinerea (Bc); [23]): 10 µg/mL; IC90 (Rhizoctonia solani (Rs); [24]): > 50 µg/mL; IC90 [2, 25]: 50 µg/mL; IC90 [3, 26]: > 50 µg/mL; IC90 (Septoria tritici (St); [27]): > 50 µg/mL; IC90 [4, 28]: 10 µg/mL"
≥ 50,50,10,50,> 50,> 50,> 50,≥ 2,COc1ccc(F)cc1[C@H](Cn1c(=O)n(C(C)(C)C(N)=O)c(=O)c2c(C)c(-n3cccn3)sc21)OC1CCC(=O)CC1 [Compound I-170],
50,50,10,50,2,> 50,> 50,2,COc1ccc(F)cc1CCn1c(=O)n(C(C)(C)C(=O)NC(C)C)c(=O)c2c(C)c(-n3cccn3)sc21 [Compound I-329],
50,50,10,0.08,2,> 50,> 50,≥ 2,CCNC(=O)C(C)(C)n1c(=O)c2c(C)c(C(=O)OCC)sc2n(C[C@H](OCCC#N)c2cc(F)ccc2O)c1=O [Compound I-302],
,,,,,,,,COc1ccc(F)cc1[C@H](Cn1c(=O)n(C(C)(C)C(=O)NC(C)C)c(=O)c2c(C)c(-n3nccn3)sc21)OCCC(N)=O [Compound I-142],"IC90 [1, 5]: 10 µg/mL; IC90 (Diplodia maydis (Dm); [6]): 50 µg/mL; IC90 (Botrtyis cinerea (Bc); [7]): 2 µg/mL; IC90 (Rhizoctonia solani (Rs); [8]): 2 µg/mL; IC90 [2, 9]: 0.4 µg/mL; IC90 [3, 10]: ≥ 50 µg/mL; IC90 (Septoria tritici (St); [11]): > 50 µg/mL; IC90 [4, 12]: 0.4 µg/mL"
,,,,,,,,COc1ccc(F)cc1[C@H](Cn1c(=O)n([C@@H](C)C(N)=O)c(=O)c2c(C)c(-n3nccn3)sc21)OCC(C)(C)C#N [Compound I-256],"IC90 [1, 21]: 50 µg/mL; IC90 (Diplodia maydis (Dm); [22]): 50 µg/mL; IC90 (Botrtyis cinerea (Bc); [23]): 50 µg/mL; IC90 (Rhizoctonia solani (Rs); [24]): 50 µg/mL; IC90 [2, 25]: 50 µg/mL; IC90 [3, 26]: > 50 µg/mL; IC90 (Septoria tritici (St); [27]): > 50 µg/mL; IC90 [4, 28]: 10 µg/mL"
2,≥ 10,2,2,0.4,> 50,> 50,0.08,CC(=O)Oc1ccccc1[C@H](Cn1c(=O)n(C(C)(C)C(=O)NC(C)C)c(=O)c2c(C)c(-n3nccn3)sc21)OCCC#N [Compound I-304],
